Assay results from US6124323A, “4-substituted piperidine analogs and their use as subtype selective NMDA receptor antagonists” (Warner-Lambert Company, priority 1998, dated 2000).
pIC50: −log10 of the molar value. Counter-ions that a name gives are not always drawn.

Key:
Format in all cases: cell-based
[1] = biological target: T1, NMDA receptor subunits 1A/2A (Rattus norvegicus, UniProt P35439+Q00959); experiment: Electrophysiological assay at NMDA receptor subunits expressed in Xenopus oocytes, 1A/2A; details: glutamate 100 μm and glycine 1-100 μm
T1 construct: expressed in transfected cells; host or cells: Xenopus laevis oocytes (cRNA injection; clones from Dr. P. H. Seeburg)
Protocol: (§1) Many of the properties of native NMDA receptors are seen in recombinant homomeric NR1 receptors. These properties are altered by the NR2 subunits. Recombinant NMDA receptors expressed in Xenopus oocytes have been studied by voltage-clamp recording, as has developmental and regional expression of the mRNAs encoding NMDA receptor subunits. Electrophysiological assays were utilized to characterize the actions of compounds at NMDA receptors expressed in Xenopus oocytes. The compounds were assayed at four subunit combinations of cloned rat NMDA receptors, corresponding to three putative NMDA receptor subtypes [Moriyoshi, et al. Nature 1991, 354, 31-37; Monyer et al, Science 1992, 256, 1217-1221; Kutsuwada et al, Nature 1992, 358, 36-41; Sugihara et al, Biochem. Biophys Res. Commun. 1992, 185, 826-832].
(§2) Electrophysiological Assays at NMDA Receptor Subunits
(§3) Preparation of RNA. cDNA clones encoding the NR1A, NR2A, NR2B, NR2C and NR2D rat NMDA receptor subtypes were provided by Dr. P. H. Seeburg (see, Moriyoshi et al., Nature (Lond.) 354:31-37 (1991); Kutsuwada et al., Nature (Lond.) 358:36-41 (1992) Monyer et al., Science (Washington, D.C.) 256:1217-1221 (1992); Ikeda et al., FEBS Lett. 313:34-38 (1992); Ishii et al., J. Biol. Chem. 268:2836-2843 (1993) for details of these clones or their mouse homologs). The clones were transformed into appropriate host bacteria and plasmid preparations were made with conventional DNA purification techniques. A sample of each clone was linearized by restriction enzyme digestion and cRNA was synthesized with T3 RNA polymerase. The cRNA was diluted to 400 ng/μl and stored in 1 μl aliquots at -80° C. until injection.
(§4) The Xenopus oocyte expression system. Mature female Xenopus laevis were anaesthetized (20-40 min) using 0.15% 3-aminobenzoic acid ethyl ester (MS-222) and 2-4 ovarian lobes were surgically removed. Oocytes at developmental stages IV-VI (Dumont, J. N., J. Morphol. 136:153-180 (1972)), were dissected from the ovary still surrounded by enveloping ovarian tissues. Follicle-enclosed oocytes were micro-injected with 1:1 mixtures of cRNA:NR1A+NR2A, 2B, 2C or 2D; injecting ~2,5, or 20 ng of RNA encoding each receptor subunit. NR1A encoding cRNA was injected alone at ~20 ng. Oocytes were stored in Barth's medium containing (in mM):NaCl, 88; KCl, 1; CaCl2, 0.41; Ca(NO3)2, 0.33; MgSO4, 0.82 NaHCO3, 2.4; HEPES 5, pH 7.4, with 0.1 mg/ml gentamicin sulphate. While oocytes were still surrounded by enveloping ovarian tissues the Barth's medium was supplemented with 0.1% bovine serum. Oocytes were defolliculated 1-2 days following injections by treatment with collagenase (0.5 mg/ml Sigma Type I for 0.5-1 hr) (Miledi and Woodward, J. Physiol. (Lond.) 416:601-621 (1989)) and subsequently stored in serum-free medium.
(§5) Electrical recordings were made using a conventional two-electrode voltage clamp (Dagan TEV-200) over periods ranging between 3-21 days following injection. (Woodward et al., Mol. Pharmacol. 41: 89-103 (1992)). Oocytes were placed in a 0.1 ml recording chamber continuously perfused (5-15 ml min^-1 ) with frog Ringer's solution containing (in mM):NaCl, 115; KCl, 2; CaCl2, 1.8; HEPES, 5; pH 7.4. Drugs were applied by bath perfusion. Using oocytes expressing different subunit combinations of NMDA receptor, NMDA currents were activated by co-application of glutamate (100 μm) and glycine (1-100 μm). Inhibitory potency of the novel antagonists was assessed on responses elicited by fixed concentrations of glutamate and glycine, by measuring reductions in current induced by progressively increasing concentrations of antagonist. Concentration-inhibition curves were fit with equation 1.
(§6) I/Icontrol =1/(1+([antagonist]/10^-pIC50)^n) Eq. 1
(§7) in which Icontrol is the current evoked by agonists alone, pIC50 =-log IC50, IC50 is the concentration of antagonist that produces half maximal inhibition, and n is the slope factor. (De Lean et al., Am. J. Physiol. 235:E97-102 (1978)). […]

[2] = biological target: T2, NMDA receptor subunits 1A/2C (Rattus norvegicus, UniProt P35439+Q00961); experiment: Electrophysiological assay at NMDA receptor subunits expressed in Xenopus oocytes, 1A/2C; details: Xenopus oocytes; glutamate 100 μm and glycine 1-100 μm; read-out: Subunits IC50, 1A/2C
T2 construct: expressed in transfected cells; host or cells: Xenopus laevis oocytes (cRNA injection; clones from Dr. P. H. Seeburg)
Protocol: as §1, §2, §3, §4, §5, §6, §7

[3] = biological target: T3, NMDA receptor subunits 1A/2B (Rattus norvegicus, UniProt P35439+Q00960); experiment: Electrophysiological assay at NMDA receptor subunits expressed in Xenopus oocytes, 1A/2B; details: Xenopus oocytes; glutamate 100 μm and glycine 1-100 μm; read-out: Subunits IC50, 1A/2B
T3 construct: expressed in transfected cells; host or cells: Xenopus laevis oocytes (cRNA injection; clones from Dr. P. H. Seeburg)
Protocol: as §1, §2, §3, §4, §5, §6, §7

T3 sequence (Q00960 27-1482, other chains not shown): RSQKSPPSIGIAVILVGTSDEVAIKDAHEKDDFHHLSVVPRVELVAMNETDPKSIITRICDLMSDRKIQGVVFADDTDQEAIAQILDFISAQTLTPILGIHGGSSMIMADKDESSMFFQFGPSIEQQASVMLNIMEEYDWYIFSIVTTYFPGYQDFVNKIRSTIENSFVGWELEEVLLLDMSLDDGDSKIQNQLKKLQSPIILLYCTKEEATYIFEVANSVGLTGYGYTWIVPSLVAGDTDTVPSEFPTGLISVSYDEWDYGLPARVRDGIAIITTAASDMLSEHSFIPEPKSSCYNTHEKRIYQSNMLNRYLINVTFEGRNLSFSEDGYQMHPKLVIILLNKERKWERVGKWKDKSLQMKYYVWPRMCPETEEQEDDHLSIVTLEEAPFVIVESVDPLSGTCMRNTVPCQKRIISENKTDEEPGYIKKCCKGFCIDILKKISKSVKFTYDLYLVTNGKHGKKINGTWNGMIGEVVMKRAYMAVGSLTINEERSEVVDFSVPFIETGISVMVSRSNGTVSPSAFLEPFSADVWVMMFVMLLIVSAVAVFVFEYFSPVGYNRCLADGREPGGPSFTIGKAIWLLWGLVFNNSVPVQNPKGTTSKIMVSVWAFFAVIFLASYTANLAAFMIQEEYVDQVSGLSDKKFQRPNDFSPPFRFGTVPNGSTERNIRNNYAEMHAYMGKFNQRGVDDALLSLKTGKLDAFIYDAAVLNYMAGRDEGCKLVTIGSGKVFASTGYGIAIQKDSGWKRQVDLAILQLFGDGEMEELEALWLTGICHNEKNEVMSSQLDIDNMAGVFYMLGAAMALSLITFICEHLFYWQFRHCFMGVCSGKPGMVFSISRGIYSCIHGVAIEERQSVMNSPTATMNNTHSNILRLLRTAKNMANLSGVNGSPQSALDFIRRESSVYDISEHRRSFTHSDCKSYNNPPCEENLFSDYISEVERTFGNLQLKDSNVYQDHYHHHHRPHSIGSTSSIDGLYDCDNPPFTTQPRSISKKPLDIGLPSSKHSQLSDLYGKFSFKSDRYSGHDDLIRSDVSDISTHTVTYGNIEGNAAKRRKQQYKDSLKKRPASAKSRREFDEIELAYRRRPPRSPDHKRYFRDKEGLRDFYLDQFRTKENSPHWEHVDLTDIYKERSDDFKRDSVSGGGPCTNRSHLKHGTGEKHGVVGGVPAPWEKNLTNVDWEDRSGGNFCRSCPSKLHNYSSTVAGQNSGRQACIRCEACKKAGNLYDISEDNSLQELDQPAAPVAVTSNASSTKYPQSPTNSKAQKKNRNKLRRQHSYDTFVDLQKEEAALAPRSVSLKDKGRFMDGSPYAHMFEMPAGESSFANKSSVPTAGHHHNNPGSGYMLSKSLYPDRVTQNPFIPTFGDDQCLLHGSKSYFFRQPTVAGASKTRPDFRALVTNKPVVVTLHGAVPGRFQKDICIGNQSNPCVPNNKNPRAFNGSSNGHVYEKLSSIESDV
T2 sequence (Q00961 20-1237, other chains not shown): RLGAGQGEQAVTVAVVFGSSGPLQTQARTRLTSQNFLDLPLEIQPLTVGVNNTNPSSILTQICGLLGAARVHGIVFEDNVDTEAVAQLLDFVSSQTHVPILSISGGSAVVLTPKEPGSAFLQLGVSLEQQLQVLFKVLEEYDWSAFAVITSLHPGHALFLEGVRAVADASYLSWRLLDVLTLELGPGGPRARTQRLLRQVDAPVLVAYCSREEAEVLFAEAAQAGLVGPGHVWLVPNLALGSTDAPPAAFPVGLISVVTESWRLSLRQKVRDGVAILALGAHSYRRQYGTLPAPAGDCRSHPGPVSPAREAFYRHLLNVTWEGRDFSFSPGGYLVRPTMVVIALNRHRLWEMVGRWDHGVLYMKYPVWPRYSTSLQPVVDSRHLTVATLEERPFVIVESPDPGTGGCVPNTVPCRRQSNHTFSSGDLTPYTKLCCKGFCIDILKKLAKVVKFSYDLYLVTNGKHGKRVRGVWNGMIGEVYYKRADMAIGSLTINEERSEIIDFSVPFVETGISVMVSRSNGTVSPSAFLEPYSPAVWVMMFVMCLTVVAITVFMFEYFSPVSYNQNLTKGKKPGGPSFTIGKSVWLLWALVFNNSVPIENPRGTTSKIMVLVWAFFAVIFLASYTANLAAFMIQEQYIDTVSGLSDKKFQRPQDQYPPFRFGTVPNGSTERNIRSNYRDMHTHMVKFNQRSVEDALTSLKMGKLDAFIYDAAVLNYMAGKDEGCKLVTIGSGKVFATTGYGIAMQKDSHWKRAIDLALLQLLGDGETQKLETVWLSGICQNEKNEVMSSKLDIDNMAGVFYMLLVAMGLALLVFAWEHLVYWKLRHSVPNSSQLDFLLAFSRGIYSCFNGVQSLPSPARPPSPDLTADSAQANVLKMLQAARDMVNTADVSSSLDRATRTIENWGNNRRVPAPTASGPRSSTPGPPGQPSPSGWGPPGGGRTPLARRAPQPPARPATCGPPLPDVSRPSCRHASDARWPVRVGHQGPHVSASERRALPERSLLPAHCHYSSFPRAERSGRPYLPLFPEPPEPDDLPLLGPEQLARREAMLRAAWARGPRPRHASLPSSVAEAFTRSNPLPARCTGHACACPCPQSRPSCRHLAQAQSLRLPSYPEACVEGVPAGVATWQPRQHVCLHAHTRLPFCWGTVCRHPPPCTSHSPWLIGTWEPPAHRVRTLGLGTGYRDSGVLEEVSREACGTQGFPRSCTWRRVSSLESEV
T1 sequence (Q00959 20-1464 limits assumed, other chains not shown): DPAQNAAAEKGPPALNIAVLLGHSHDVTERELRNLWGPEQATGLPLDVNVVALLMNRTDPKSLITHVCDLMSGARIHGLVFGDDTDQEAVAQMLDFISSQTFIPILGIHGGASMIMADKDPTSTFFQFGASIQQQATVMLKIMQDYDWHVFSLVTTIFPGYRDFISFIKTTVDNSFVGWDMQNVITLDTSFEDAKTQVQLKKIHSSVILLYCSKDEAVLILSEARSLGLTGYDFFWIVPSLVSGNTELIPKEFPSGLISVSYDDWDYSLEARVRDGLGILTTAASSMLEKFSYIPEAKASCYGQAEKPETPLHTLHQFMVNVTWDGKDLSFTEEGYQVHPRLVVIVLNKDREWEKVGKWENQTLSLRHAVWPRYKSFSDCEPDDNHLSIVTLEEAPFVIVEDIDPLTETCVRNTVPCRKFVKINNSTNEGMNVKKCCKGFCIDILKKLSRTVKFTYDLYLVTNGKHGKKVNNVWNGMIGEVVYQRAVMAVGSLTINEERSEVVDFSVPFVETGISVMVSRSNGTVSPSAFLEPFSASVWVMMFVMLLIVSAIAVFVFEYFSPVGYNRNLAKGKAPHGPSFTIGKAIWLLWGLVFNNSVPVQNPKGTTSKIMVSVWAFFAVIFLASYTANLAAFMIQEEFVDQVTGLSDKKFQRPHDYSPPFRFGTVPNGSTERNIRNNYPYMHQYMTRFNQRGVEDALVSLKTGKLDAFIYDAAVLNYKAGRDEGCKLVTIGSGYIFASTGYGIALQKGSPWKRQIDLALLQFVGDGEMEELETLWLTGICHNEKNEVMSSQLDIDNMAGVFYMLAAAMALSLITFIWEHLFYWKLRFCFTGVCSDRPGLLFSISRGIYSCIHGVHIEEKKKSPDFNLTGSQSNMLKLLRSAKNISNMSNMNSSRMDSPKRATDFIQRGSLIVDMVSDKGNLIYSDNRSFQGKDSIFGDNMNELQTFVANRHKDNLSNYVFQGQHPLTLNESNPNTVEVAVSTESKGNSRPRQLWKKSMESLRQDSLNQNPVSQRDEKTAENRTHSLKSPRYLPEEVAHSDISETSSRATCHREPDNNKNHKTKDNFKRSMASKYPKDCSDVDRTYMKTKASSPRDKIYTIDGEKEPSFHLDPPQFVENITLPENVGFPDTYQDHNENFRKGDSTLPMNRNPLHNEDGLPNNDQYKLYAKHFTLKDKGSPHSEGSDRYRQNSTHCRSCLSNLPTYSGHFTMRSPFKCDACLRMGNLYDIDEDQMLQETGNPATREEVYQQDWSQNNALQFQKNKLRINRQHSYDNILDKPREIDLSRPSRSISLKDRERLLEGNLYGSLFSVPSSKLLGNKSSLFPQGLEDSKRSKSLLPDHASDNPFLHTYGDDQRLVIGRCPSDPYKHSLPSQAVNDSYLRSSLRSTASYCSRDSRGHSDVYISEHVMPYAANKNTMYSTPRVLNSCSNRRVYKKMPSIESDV

pIC50 [1]	pIC50 [2]	pIC50 [3]	Compound
< 4.00	< 4.00	5.05	OC(CCc1ccccc1)CN1CCC(Cc2ccccc2)CC1 (stereo not shown) [Ex. 4, 4-Benzyl-1-[(2-hydroxy-4-phenyl)butyl]piperidine]
< 4.00	< 4.00	5.00	c1ccc(OCCCN2CCC(c3ccccc3)CC2)cc1 [Ex. 7, 1-(3-Phenoxypropyl)-4-phenylpiperidine]
< 4.00	< 4.00	5.00	c1ccc(OCCCCN2CCC(c3ccccc3)CC2)cc1 [Ex. 9, 1-(4-Phenoxybutyl)-4-phenylpiperidine]
5.26	< 4.00	6.15	NNC(=O)Cc1cccc(OCCN2CCC(Cc3ccccc3)CC2)c1 [Ex. 20, 4-Benzyl-1-(2-(3-(hydrazinocarbonylmethyl)phenoxy)ethyl)piperidine]
4.35	< 4.00	5.60	CC(COc1ccccc1)N1CCC(Cc2ccccc2)CC1 (stereo not shown) [Ex. 21, 4-Benzyl-1-(1-methyl-2-phenoxyethyl)piperidine hydrobromide]
4.40	< 4.00	4.66	O=[N+]([O-])c1ccc(CC2CCN(CCOc3ccc(F)cc3)CC2)cc1 [Ex. 36, 1-(2-(4-Fluorophenoxy)ethyl)-4-(4-nitrobenzyl)piperidine hydrobromide]
4.85	< 4.00	5.00	O=[N+]([O-])c1ccc(CC2CCN(CCCOc3ccccc3)CC2)cc1 [Ex. 37, 4-(4-Nitrobenzyl)-1-(3-phenoxypropyl)piperidine hydrobromide]
4.05	< 4.00	5.30	CC(CCOc1ccccc1)N1CCC(Cc2ccccc2)CC1 (stereo not shown) [Ex. 41, 4-Benzyl-1-(1-methyl-3-phenoxypropyl)piperidine hydrochloride]
4.12	< 4.00	5.30	c1ccc(CC2CCN(CCOc3ccc4ncccc4c3)CC2)cc1 [Ex. 50]
4.10	< 4.00	5.30	c1ccc(CC2CCN(CCOc3cccc4cccnc34)CC2)cc1 [Ex. 51, 4-Benzyl-1-[2-(8-quinolinoxy)ethyl]piperidine]
4.22	< 4.00	5.02	Nc1c(OCCN2CCC(Cc3ccccc3)CC2)cccc1[N+](=O)[O-] [Ex. 52, 4-Benzyl-1-[2-(2-amino-3-nitrophenoxy)ethyl]piperidine]
4.22	< 4.00	5.44	O=c1[nH]c2cccc(OCCN3CCC(Cc4ccccc4)CC3)c2[nH]c1=O [Ex. 54, 4-Benzyl-1-[2-(2,3-dioxoquinoxalin-5-oxy)ethyl]piperidine]
4.05	< 4.00	5.96	Nc1ccc(OCCN2CCC(Cc3ccccc3)CC2)cc1[N+](=O)[O-] [Ex. 56, 4-Benzyl-1-[2-(4-amino-3-nitrophenoxy)ethyl]piperidine]
4.10	< 4.00	5.22	O=[N+]([O-])c1cccc(OCCN2CCC(Cc3ccccc3)CC2)c1 [Ex. 62, 4-Benzyl-1-[2-(3-nitrophenoxy)ethyl]piperidine]
4.70	< 4.00	6.37	COc1cccc(OCCN2CCC(Cc3ccccc3)CC2)c1 [Ex. 69, 4-Benzyl-1-[2-(3-methoxyphenoxy)ethyl]piperidine]
4.80	4.15	7.60	O=c1[nH]c2ccc(OCCN3CCC(Cc4ccc(Cl)cc4)CC3)cc2[nH]1 [Ex. 80, 4-(4-Chlorobenzyl)-1-[2-(2-oxobenzimidazol-5-oxy)ethyl]piperidine]
4.10	4.10	4.00	c1ccc(COc2ccc(OCCN3CCC(Cc4ccccc4)CC3)cc2)cc1 [Ex. 98, 1-[2-(4-Benzyloxyphenoxy)ethyl]-4-benzylpiperidine hydrochloride]
4.05	3.59	7.70	Oc1ccc(CCCN2CCC(Cc3ccccc3)CC2)cc1 [Ex. 106, 1-[3-(4-Hydroxyphenyl)propyl]-4-benzylpiperidine hydrochloride]
4.22	3.57	7.52	Oc1ccc(CCCN2CCC(Cc3ccc(Cl)cc3)CC2)cc1 [Ex. 107, 1-[3-(4-Hydroxyphenyl)propyl]-4-(4-chlorobenzyl)piperidine hydrochloride]
4.21	< 3.52	6.60	Oc1ccc(CCN2CCC(Cc3ccccc3)CC2)cc1 [Ex. 108, 1-[2-(4-Hydroxyphenyl)ethyl]-4-benzylpiperidine hydrochloride]
3.70	3.70	4.52	Fc1ccc(OCCN2CCC(Cc3cccc(F)c3)CC2)cc1 [Ex. 113, 4-(3-Fluorobenzyl)-1-(2-(4-fluorophenoxy)ethyl)piperidine hydrochloride]
4.15	< 3.52	5.30	Oc1ccc(OCCN2CCC(c3ccccc3)CC2)cc1 [Ex. 127, 1-[2-(4-Hydroxyphenoxy)ethyl]-4-phenylpiperidine hydrochloride]
4.10	–	4.55	Fc1ccc(OCCN2CCC(Cc3ccc4c(c3)CCCC4)CC2)cc1 [Ex. 140, 1-(2-(4-Fluorophenoxy)ethyl)-4-((5,6,7,8-tetrahydro-2-naphthyl)methyl)piperidine hydrochloride]
–	4.05	7.00	Oc1ccc(OCCN2CCC(Cc3ccc4ccccc4c3)CC2)cc1 [Ex. 141, 1-(2-(4-Hydroxyphenoxy)ethyl)-4-((2-naphthyl)methyl)piperidine hydrochloride]
< 3.52	< 3.52	5.80	c1ccc(CC2CCN(CCSc3ccccc3)CC2)cc1 [Ex. 144, 4-Benzyl-1-(2-thiophenoxyethyl)piperidine hydrochloride]
3.98	3.87	5.42	c1ccc(CC2CCN(CCOc3ccc4c(c3)OCO4)CC2)cc1 [Ex. 148, 1-[2-(3,4-Methylenedioxyphenoxy)ethyl]-4-benzylpiperidine hydrochloride]
–	3.72	6.52	Oc1ccccc1OCCN1CCC(Cc2ccc(F)cc2)CC1 [Ex. 158, 4-(4-Fluorobenzyl)-1-[2-(2-hydroxyphenoxy)ethyl]piperidine hydrochloride]
–	< 3.52	6.92	Oc1ccc(OCCN2CCC(O)(Cc3ccccc3)CC2)cc1 [Ex. 164, 4-Benzyl-4-hydroxy-1-[2-(4-hydroxyphenoxy)ethyl]piperidine hydrochloride]
–	< 3.52	6.70	Cn1c(=O)[nH]c2ccc(OCCN3CCC(Cc4ccccc4)CC3)cc21 [Ex. 193, 4-Benzyl-1-(2-(3-methyl-2-oxobenzamidazol-5-oxy)ethyl)piperidine]
